Assay results: PubChem BioAssay (NCI)
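Grown in 96-well plates, cells were treated for 48 hours with each compound at five concentrations. Insufficient inhibition: endpoint recorded as highest concentration tested. Here, GI50 denotes the concentration required for 50% inhibition of growth. Definition used: TGI = concentration required for complete inhibition of growth.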

Tests used:
Assay in all cases: NCI-60 cell line screen, 48 h
T-47D breast = tested on: T-47D breast
OVCAR-5 ovarian = tested on: OVCAR-5 ovarian
UACC-257 melanoma = tested on: UACC-257 melanoma
MOLT-4 leukemia = tested on: MOLT-4 leukemia
HCT-116 colon = tested on: HCT-116 colon
CCRF-CEM leukemia = tested on: CCRF-CEM leukemia
786-0 renal = tested on: 786-0 renal
ACHN renal = tested on: ACHN renal
KM12 colon = tested on: KM12 colon
UO-31 renal = tested on: UO-31 renal
M14 melanoma = tested on: M14 melanoma
OVCAR-4 ovarian = tested on: OVCAR-4 ovarian
COLO 205 colon = tested on: COLO 205 colon
MDA-MB-231 breast = tested on: MDA-MB-231 breast
SNB-19 CNS = tested on: SNB-19 CNS
SK-OV-3 ovarian = tested on: SK-OV-3 ovarian
SN12C renal = tested on: SN12C renal
HS 578T breast = tested on: HS 578T breast
SK-MEL-2 melanoma = tested on: SK-MEL-2 melanoma
SK-MEL-5 melanoma = tested on: SK-MEL-5 melanoma
HL-60(TB) leukemia = tested on: HL-60(TB) leukemia
NCI-H23 lung = tested on: NCI-H23 lung
SF-539 CNS = tested on: SF-539 CNS
SNB-75 CNS = tested on: SNB-75 CNS
LOX IMVI melanoma = tested on: LOX IMVI melanoma
NCI-H522 lung = tested on: NCI-H522 lung
MDA-MB-435 = tested on: MDA-MB-435
K-562 leukemia = tested on: K-562 leukemia
SK-MEL-28 melanoma = tested on: SK-MEL-28 melanoma
OVCAR-3 ovarian = tested on: OVCAR-3 ovarian
OVCAR-8 ovarian = tested on: OVCAR-8 ovarian
UACC-62 melanoma = tested on: UACC-62 melanoma
IGROV1 ovarian = tested on: IGROV1 ovarian
RXF 393 renal = tested on: RXF 393 renal
EKVX NSCLC = tested on: EKVX NSCLC
HCC-2998 colon = tested on: HCC-2998 colon
NCI-H460 lung = tested on: NCI-H460 lung
NCI-H226 lung = tested on: NCI-H226 lung
PC-3 prostate = tested on: PC-3 prostate
HT29 colon = tested on: HT29 colon
A549 NSCLC = tested on: A549 NSCLC
SF-268 CNS = tested on: SF-268 CNS
HOP-92 NSCLC = tested on: HOP-92 NSCLC
DU-145 prostate = tested on: DU-145 prostate
CAKI-1 renal = tested on: CAKI-1 renal
MALME-3M melanoma = tested on: MALME-3M melanoma
MCF7 breast = tested on: MCF7 breast
SW-620 colon = tested on: SW-620 colon
TK-10 renal = tested on: TK-10 renal
SR leukemia = tested on: SR leukemia
HOP-62 NSCLC = tested on: HOP-62 NSCLC
HCT-15 colon = tested on: HCT-15 colon
BT-549 breast = tested on: BT-549 breast
U251 CNS = tested on: U251 CNS
NCI/ADR-RES ovarian = tested on: NCI/ADR-RES ovarian
SF-295 CNS = tested on: SF-295 CNS
RPMI-8226 leukemia = tested on: RPMI-8226 leukemia

In the case of `O=S(=O)(Nc1cc(Cl)ccc1Cl)c1ccc(-c2cnc(C3CC3)o2)cc1`, the GI50 (T-47D breast) is reported as 1.94 µM, the TGI (T-47D breast) is reported as > 100 µM and the GI50 (OVCAR-5 ovarian) is reported as 3.39 µM. For the same compound, the TGI (OVCAR-5 ovarian) was > 100 µM, the GI50 (UACC-257 melanoma) was 15 µM and the TGI (UACC-257 melanoma) was 56.4 µM. The GI50 (MOLT-4 leukemia) was 1.64 µM, the TGI (MOLT-4 leukemia) was > 100 µM and the GI50 (HCT-116 colon) was 0.453 µM. The TGI (HCT-116 colon) was 15 µM, the GI50 (CCRF-CEM leukemia) was 0.592 µM and the TGI (CCRF-CEM leukemia) was > 100 µM. It also gave a GI50 (786-0 renal) of 0.539 µM, a TGI (786-0 renal) of 20.9 µM and a GI50 (ACHN renal) of 4.1 µM. For the same compound, the TGI (ACHN renal) was 76.6 µM, the GI50 (KM12 colon) was 0.704 µM and the TGI (KM12 colon) was 24.4 µM. For the same compound, the GI50 (UO-31 renal) was 2.49 µM, the TGI (UO-31 renal) was 43.5 µM and the GI50 (M14 melanoma) was 0.547 µM. For the same compound, the TGI (M14 melanoma) was 10.5 µM, the GI50 (OVCAR-4 ovarian) was 11.8 µM and the TGI (OVCAR-4 ovarian) was > 100 µM. The GI50 (COLO 205 colon) was 1.84 µM, the TGI (COLO 205 colon) was 13.4 µM and the GI50 (MDA-MB-231 breast) was 4.31 µM. For the same compound, the TGI (MDA-MB-231 breast) was 43 µM, the GI50 (SNB-19 CNS) was 1.51 µM and the TGI (SNB-19 CNS) was > 100 µM. The GI50 (SK-OV-3 ovarian) was 5.3 µM, the TGI (SK-OV-3 ovarian) was 85.5 µM and the GI50 (SN12C renal) was 4.32 µM. The TGI (SN12C renal) was > 100 µM, the GI50 (HS 578T breast) was 0.701 µM and the TGI (HS 578T breast) was 24 µM. For the same compound, the GI50 (SK-MEL-2 melanoma) was 11.1 µM, the TGI (SK-MEL-2 melanoma) was 68.8 µM and the GI50 (SK-MEL-5 melanoma) was 3.36 µM. It also gave a TGI (SK-MEL-5 melanoma) of 21.8 µM, a GI50 (HL-60(TB) leukemia) of 0.468 µM and a TGI (HL-60(TB) leukemia) of 16.4 µM. The GI50 (NCI-H23 lung) was 2.84 µM, the TGI (NCI-H23 lung) was 67.2 µM and the GI50 (SF-539 CNS) was 1.24 µM. The TGI (SF-539 CNS) was 10.2 µM, the GI50 (SNB-75 CNS) was 0.475 µM and the TGI (SNB-75 CNS) was 3.88 µM. For the same compound, the GI50 (LOX IMVI melanoma) was 3.3 µM, the TGI (LOX IMVI melanoma) was > 100 µM and the GI50 (NCI-H522 lung) was 1.75 µM. For the same compound, the TGI (NCI-H522 lung) was 39.2 µM, the GI50 (MDA-MB-435) was 0.346 µM and the TGI (MDA-MB-435) was 1.49 µM. For the same compound, the GI50 (K-562 leukemia) was 0.4 µM, the TGI (K-562 leukemia) was > 100 µM and the GI50 (SK-MEL-28 melanoma) was 6.21 µM. For the same compound, the TGI (SK-MEL-28 melanoma) was 82.8 µM, the GI50 (OVCAR-3 ovarian) was 0.512 µM and the TGI (OVCAR-3 ovarian) was 14.8 µM. The GI50 (OVCAR-8 ovarian) was 3.95 µM, the TGI (OVCAR-8 ovarian) was > 100 µM and the GI50 (UACC-62 melanoma) was 0.399 µM. The TGI (UACC-62 melanoma) was 23.9 µM, the GI50 (IGROV1 ovarian) was 0.673 µM and the TGI (IGROV1 ovarian) was > 100 µM. The GI50 (RXF 393 renal) was 1.06 µM, the TGI (RXF 393 renal) was 6.65 µM and the GI50 (EKVX NSCLC) was 5.24 µM. The TGI (EKVX NSCLC) was 85.4 µM, the GI50 (HCC-2998 colon) was 3.03 µM and the TGI (HCC-2998 colon) was 25.2 µM. It also gave a GI50 (NCI-H460 lung) of 0.769 µM, a TGI (NCI-H460 lung) of 17.4 µM and a GI50 (NCI-H226 lung) of 4.55 µM. For the same compound, the TGI (NCI-H226 lung) was 38.6 µM, the GI50 (PC-3 prostate) was 0.563 µM and the TGI (PC-3 prostate) was 17 µM. It also gave a GI50 (HT29 colon) of 0.654 µM, a TGI (HT29 colon) of 13.5 µM and a GI50 (A549 NSCLC) of 1.66 µM. The TGI (A549 NSCLC) was > 100 µM, the GI50 (SF-268 CNS) was 10.7 µM and the TGI (SF-268 CNS) was 71.3 µM. It also gave a GI50 (HOP-92 NSCLC) of 1.21 µM, a TGI (HOP-92 NSCLC) of 8.42 µM and a GI50 (DU-145 prostate) of 3.72 µM. The TGI (DU-145 prostate) was > 100 µM, the GI50 (CAKI-1 renal) was 0.647 µM and the TGI (CAKI-1 renal) was 52.1 µM. It also gave a GI50 (MALME-3M melanoma) of 10.8 µM, a TGI (MALME-3M melanoma) of 57.6 µM and a GI50 (MCF7 breast) of 0.557 µM. The TGI (MCF7 breast) was > 100 µM, the GI50 (SW-620 colon) was 0.814 µM and the TGI (SW-620 colon) was > 100 µM. The GI50 (TK-10 renal) was 13.6 µM, the TGI (TK-10 renal) was > 100 µM and the GI50 (SR leukemia) was 0.551 µM. The TGI (SR leukemia) was > 100 µM, the GI50 (HOP-62 NSCLC) was 1.64 µM and the TGI (HOP-62 NSCLC) was 27.5 µM. The GI50 (HCT-15 colon) was 0.608 µM, the TGI (HCT-15 colon) was > 100 µM and the GI50 (BT-549 breast) was 0.449 µM. It also gave a TGI (BT-549 breast) of 14.9 µM, a GI50 (U251 CNS) of 2 µM and a TGI (U251 CNS) of 68.2 µM. It also gave a GI50 (NCI/ADR-RES ovarian) of 1.22 µM, a TGI (NCI/ADR-RES ovarian) of 82.6 µM and a GI50 (SF-295 CNS) of 0.406 µM. The TGI (SF-295 CNS) was 10.3 µM, the GI50 (RPMI-8226 leukemia) was 2.44 µM and the TGI (RPMI-8226 leukemia) was > 100 µM.
